{"source": "patent US20260232653A1", "about": "“USE OF CONDENSED AZACYCLE COMPOUNDS FOR THE TREATMENT OF LYSOSOMAL STORAGE DISORDERS” (Minerva Neurosciences, Inc., priority 2023, published 2026)", "key": {"[1]": {"tested_on": "mouse model of Niemann-Pick Disease, Type C", "conditions": "WO 2014/022841; cited from earlier work"}, "[2]": {"biological_target": "sigma 2/transmembrane protein 97 (\"TMEM97\") receptors (Homo sapiens, UniProt Q5BJF2)", "sequence (Q5BJF2 whole entry, species assumed)": "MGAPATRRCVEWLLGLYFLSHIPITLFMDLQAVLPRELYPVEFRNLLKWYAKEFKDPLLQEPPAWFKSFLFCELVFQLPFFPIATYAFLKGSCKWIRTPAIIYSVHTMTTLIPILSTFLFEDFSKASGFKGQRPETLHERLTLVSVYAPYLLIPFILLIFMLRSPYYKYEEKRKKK", "conditions": "antagonist of the sigma receptor; known in the art; cited from earlier work"}, "[3]": {"tested_on": "NPC1 protein", "experiment": "Effect on NPC1 protein levels, Western blot densitometry in I1061T fibroblasts", "format": "cell-based", "conditions": "0.3, 1 and 3 μM, 24 h, 48 h, 72 h, versus vehicle (FIGS. 1B-1D)", "description": "(§1) Healthy and I1061T fibroblasts (Coriell Institute Camden USA, cod. GM05659 (Healthy) and GM18453 (11061T)) were grown in air containing 5% CO2 in Dulbecco's Modified Eagle Medium (DMEM) medium, containing 10% v/v fetal calf serum, 2 mM L-glutamine, 0.1 mg/mL gentamicin, and 100 U/mL penicillin. Cells were passaged every 3 days.\n1.5 mg of each of the compounds were weighed, dissolved in the proper solvent to reach a 3 mM concentration, kept at 4° C., and used within 15 days. The dilutions for the treatment were carried out in order to administer a 1:1000 volume. Specifically, 2 μL in 2 mL medium was administered. Ctr was made with DMSO.\nCells were washed twice in phosphate buffer saline (PBS), harvested with 1% v/v trypsin, and pelleted by centrifugation. Pellets were re-suspended in PBS containing 0.1 M sucrose, 0.05 M KCl, 0.04 M KH2PO4, 30 mM EDTA, pH 7.4, and sonicated. The protein concentration was determined by the Lowry method.\nSamples were solubilized in 0.25 mM Tris-HCl, (pH 6.8) containing 20% (w/v) SDS, protease inhibitor cocktail (Merck #PIC0002), then boiled for 2 minutes. […]"}, "[4]": {"tested_on": "I1061T fibroblasts", "experiment": "LysoTracker cytofluorimetric analysis of lysosomal size", "format": "cell-based", "conditions": "after 48 hours, particularly at 0.3 μM (FIG. 3)", "description": "as §1\nHealthy and I1061T fibroblasts were cultured as in Example 1. To evaluate the effect of Compound No. 10 on lysosomal size, cells were treated with either 300 μM beta-cyclodextrin (CD), 2.5 μM Rim, 0.3 μM Compound No. 10 (CB), 1 μM Compound No. 10, 3 μM Compound No. 10, or vehicle control (ctr) for 72 hours. Following treatment, cytofluorimetric assays using Lysotracker™ (Life Technology #L7528) fluorescence as a tool was used and performed according to the manufacturer's instructions. LysoTracker™ provides fluorescence detection for live-cell staining of acidic environments and can be used for labeling and tracing acidic organelles such as lysosomes. Stained and unstained cells were analyzed by Cytofluorimeter CytoFLEX (Beckman Coulter). Data provided are the ratio of geometric (geo) mean of LysoTracker™ levels in stained divided by unstained samples, collected at 24 hours (FIG. 3, left), 48 hours (FIG. 3, middle), and 72 hours (FIG. 3, right)."}}}
{"smiles": "OC[C@H]1O[C@@H]2O[C@H]3[C@H](O)[C@@H](O)[C@@H](O[C@H]4[C@H](O)[C@@H](O)[C@@H](O[C@H]5[C@H](O)[C@@H](O)[C@@H](O[C@H]6[C@H](O)[C@@H](O)[C@@H](O[C@H]7[C@H](O)[C@@H](O)[C@@H](O[C@H]8[C@H](O)[C@@H](O)[C@@H](O[C@H]1[C@H](O)[C@H]2O)O[C@@H]8CO)O[C@@H]7CO)O[C@@H]6CO)O[C@@H]5CO)O[C@@H]4CO)O[C@@H]3CO", "note": "[beta-cyclodextrin]", "values": [{"measurement": "cholesterol accumulation", "setting": "[1]", "result": "reduced"}, {"measurement": "neuronal cell loss", "setting": "[1]", "result": "reduced"}]}
{"smiles": "C[C@@H]1CN(CCCn2c3ccccc3c3ccccc32)C[C@H](C)N1", "note": "[Rimcazole, 9-[3-(3,5-cis-dimethylpiperazino)propyl]-carbazole]", "values": [{"measurement": "IC50", "setting": "[2]", "result": 386, "unit": "nM"}]}
{"smiles": "CC1(C)CCN(C2CCCC2)Cc2cc(-c3ccc(C(F)(F)F)cc3)ccc21", "note": "[Compound No. 10, 2-cyclopentyl-5,5-dimethyl-8-(4-(trifluoromethyl)phenyl)-2,3,4,5-tetrahydro-1H-benzo[c]azepine]", "values": [{"measurement": "effect on NPC1 protein expression", "setting": "[3]", "result": "did not have a statistically significant effect"}, {"measurement": "fluorescence of the lysosomes (Lysotracker geo mean ratio), representing lysosomal size", "setting": "[4]", "result": "increase"}]}
